Reference: US10350231B2, “Use of cladribine for treating autoimmune inflammatory disease” (Chord Therapeutics S.a.r.l., priority 2014, dated 2019)
Entries after “also recorded” stand apart in the source; their conditions may differ.

What was measured:
[1] = test system: neuromyelitis optica (NMO) patient; assay: Case report of off-label treatment of NMO patient with cladribine; assay type: in vivo, human
Experimental: A person presented with acute visual symptoms and optic neuritis with normal head MRI. Episodic visual symptoms recurred with increasing severity up to complete blindness in one eye and episodes of deterioration in the other. Some response to methylprednisolone was noted. The diagnostic test for NMO-IgG (ELISA) was positive and brain MRI had no focal lesions.
20 mg of cladribine were administered subcutaneously to the patient on each of five dosing days, with one month or more separating the dosing days. On a dosing day, two vials were used each containing 10 ml of a solution of cladribine as shown in Example 2. Eight subcutaneous sites were used, each receiving an injection of 2.5 ml.
At the end of nine months blindness was complete bilaterally but motor and sensory functions were normal. […] After 2 years the patient was admitted with motor, sensory and autonomic symptoms. Based on new symptoms, abnormalities on spinal cord MRI and the previous NMO-IgG test the diagnosis was confirmed as neuromyelitis optica. After 3 months there was partial improvement but remaining mild paraparesis.
Prior to cladribine treatment this patient experienced five episodes of worsening over four years (estimated annual relapse rate of 1.46). The intervening remission periods were 13, 15, 6 and 6 months. From initiation of an 8-month course of cladribine treatment they experienced 34 months of stable condition without reported relapses, followed by subsequent deterioration and other treatments.

[2] = test system: T-lymphocytes from NMO patients; assay: In vitro viability response of lymphocytes derived from NMO patients to cladribine; assay type: cell-based, human; conditions: cladribine 1×10^−9M to 1×10^−4M, e.g. four days; with or without anti-CD3/anti-CD28; compared with healthy donors
Description: Using the methods described in Laugel B. et al., J. Neuroimmunol.; (2011); 240-241; 52-57 peripheral blood mononuclear cells (PBMCs) are first isolated from blood obtained from healthy donors and NMO patients, for example by ficoll gradient centrifugation. T-lymphocytes are further purified from these PBMCs, by for example magnetic bead separation using a pan-T cell reagents, or CD4 reagents. […] To determine the cells' viability response to cladribine, identical numbers of lymphocytes purified from both healthy donor and NMO patients are cultured with one of a number of cladribine concentrations, ranging from for example one nanomolar to one hundred micromolar (1×10^−9M to 1×10^−4M), or without any cladribine. After a period of several days, for example four days, the fraction of live cells is determined, for example by annexin V staining or trypan blue staining. This experiment is done either under stimulated conditions (that is, with the addition of anti-CD3 and anti-CD28 antibodies in all cultures, as below) or without these stimulating antibodies.

[3] = test system: T lymphocytes from NMO patients; assay: Stimulated (anti-CD3/anti-CD28) cytokine secretion by T lymphocytes from NMO patients; assay type: cell-based, human; conditions: cladribine 1×10^−9M to 1×10^−4M, supernatants e.g. 24 hours, compared with healthy donors
Description: Using the methods described in Laugel B. et al., J. Neuroimmunol.; (2011); 240-241; 52-57 peripheral blood mononuclear cells (PBMCs) are first isolated from blood obtained from healthy donors and NMO patients, for example by ficoll gradient centrifugation. T-lymphocytes are further purified from these PBMCs, by for example magnetic bead separation using a pan-T cell reagents, or CD4 reagents. The purified lymphocytes are maintained in culture using standard methods and reagents, for example RPMI-1640 growth medium.
To determine the effect of cladribine on stimulated cytokine secretion by T lymphocytes from NMO patients, identical numbers of purified lymphocytes purified from both healthy donor and NMO patients are pre-incubated for less than one hour in medium containing one of a number of cladribine concentrations, ranging from for example one nanomolar to one hundred micromolar (1×10^−9M to 1×10^−4M), or without added cladribine. Cells are then transferred, with their cladribine-containing or control medium, to the wells of culture plates coated with anti-CD3 antibody, and soluble anti-CD28 antibody is added. Secreted cytokines in culture supernatants collected after, for example, 24 hours, are determined by one of several standard methods including bead-based cytometric cytokine assay and enzyme-linked immunosorbent assay. […]

[4] = target: A2A (adenosine receptor class 2a) (Homo sapiens, UniProt P29274); conditions: cited from earlier work
A2A (adenosine receptor class 2a), sequence (P29274 whole entry): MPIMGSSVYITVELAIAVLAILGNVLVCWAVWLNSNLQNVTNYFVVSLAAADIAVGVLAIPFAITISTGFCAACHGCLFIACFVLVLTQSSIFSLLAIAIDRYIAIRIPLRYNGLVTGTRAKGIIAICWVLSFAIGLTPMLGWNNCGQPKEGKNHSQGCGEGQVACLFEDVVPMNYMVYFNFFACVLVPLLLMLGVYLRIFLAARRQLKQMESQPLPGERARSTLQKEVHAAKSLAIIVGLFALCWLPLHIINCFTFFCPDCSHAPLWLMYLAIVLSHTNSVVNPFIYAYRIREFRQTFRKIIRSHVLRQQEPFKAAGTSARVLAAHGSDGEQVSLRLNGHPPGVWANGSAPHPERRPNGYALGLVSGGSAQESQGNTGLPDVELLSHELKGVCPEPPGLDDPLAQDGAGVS

human lymphocytes = conditions: phosphorylation by CK blocked, lymphocyte death does not occur; cited from earlier work
[5] = test system: IgM associated inflammatory peripheral neuropathy patient; conditions: intravenous infusion, two courses of cladribine, cited from earlier work
NMO patients = conditions: cited from earlier work

Nc1nc(Cl)nc2c1ncn2[C@H]1C[C@H](O)[C@@H](CO)O1 [cladribine, 2-chloro-2′-deoxyadenosine]
disease course after cladribine treatment ([1]; one NMO patient, single course 100 mg s.c., no further immunosuppressant treatment): two years without noted deterioration; also recorded: stabilization of the disease course for over two years | adverse events attributed to cladribine ([1]; one NMO patient, total 100 mg cladribine s.c.): No adverse events attributed to cladribine were reported | stable condition without reported relapses ([1]; one NMO patient, total 100 mg cladribine s.c., from initiation of an 8-month course): 34 months | period of beneficial effects on the disease without retreatment ([1]; short period of treatment (several weeks)): over 18 months | viability (fraction of live cells) of lymphocytes from NMO patients [2]: die over several days in a manner and to an extent similar to those purified from healthy donors | secretion of cytokines by lymphocytes from NMO patients [3]: inhibited by cladribine in a manner and to a degree similar to the inhibition seen in lymphocytes from healthy donors | affinity at A2A receptors [4]: binds with high affinity | induced cytokine production (human lymphocytes): decreased | IgM antibody levels [5]: IgM levels declined slowly over a period of more than one year | symptoms ([5]; maintained for several years): symptomatic improvement

O=C1c2c(O)ccc(O)c2C(=O)c2c(NCCNCCO)ccc(NCCNCCO)c21 [mitoxantrone]
disease course under mitoxantrone ([1]; same patient, after relapse following cladribine, impaired walking, neurogenic bladder, blindness): progressive deterioration

Glatiramer acetate
effect on NMO (NMO patients): has not been found to be effective
